Measurements reported in patent publication US20240327433A1, “PYRIMIDOPYRAN COMPOUND” (Medshine Discovery Inc., priority 2021, published 2024).
Where a name gives a salt, the structure may show the parent alone.

Key:
p-ERK in GP2D cells = assay: Assay of p-ERK inhibition in GP2D cells (HTRF); type: cell-based; conditions: 1 hour incubation
Description: The cell plate was inoculated in a carbon dioxide incubator at 37° C. overnight; • 2) 2 μL of the compound was weighed and added to 78 μL of the cell medium. After the mixture was mixed thoroughly, 20 μL of the solution of compound was weighed and added to the corresponding well of the cell plate. The cell plate was placed back to the carbon dioxide incubator and incubated for another 1 hour; • 3) After completion of the incubation, the cell supernatant was discarded. 50 μL of 1× cell lysate was added to each well. The mixture was incubated with shaking at room temperature for 30 minutes; • 4) Phospho-ERK1/2 Eu Cryptate antibody and Phospho-ERK1/2 d2 antibody were diluted 20-fold with detection buffer; • 5) 16 μL of cell lysate supernatant was weighed and added into each well of a new 384 white microwell plate, and then 2 μL of the diluted solution of Phospho-ERK1/2 Eu Cryptate antibody and 2 μL of the diluted solution of Phospho-ERK1/2 d2 antibody dilution were added. The mixture was incubated at room temperature for at least 4 hours; • 6) After completion of the incubation, HTRF was read with multi-label analyzer: excitation: 320 nm, emission: 615 nm, 665 nm; • 7). IC50 of the compounds to be assayed was calculated.

[1] = Pharmacokinetic study of oral and intravenously injected compounds in CD-1 mouse; type: in vivo
Description: To assay the pharmacokinetics of oral and intravenously injected compounds in CD-1 mouse. The assay compound was mixed with 5% DMSO+95% (10% HP-β-CD) aqueous solution. The mixture was vortexed and sonicated to prepare a clear solution of 0.5 mg/mL (intravenous) or a clear solution of 3 mg/mL (oral). The clear solution was filtered by a microporous membrane for use. […] Whole blood was collected for a certain period of time, and prepared to obtain plasma. Drug concentration was analyzed by LC-MS/MS method, and pharmacokinetic parameters were calculated by Phoenix WinNonlin software (Pharsight, USA).

KRAS^G12D GP2D = assay: Anti-cell proliferation effect in tumor cell line GP2D (CellTiter-Glo 3D); type: cell-based; conditions: 120 hours
Description: (§1) In this assay, the effect of the compounds on inhibiting cell proliferation was studied by detecting the effect of the compounds on the cell activity in vitro in the tumor cell lines AsPC-1 and GP2D.
(§2) The tumor cell lines were cultured in a 37° C., 5% CO2 incubator according to the culture conditions indicated in the culture method. Cells were passaged regularly, and cells in logarithmic growth phase were used for plating.
(§3) Cells were stained with trypan blue and viable cells were counted.
(§4) The cell concentration was adjusted to an appropriate concentration.
(§5) To each well of a ULA culture plate was added 135 μL of cell suspension. To the blank control well was added the same volume of culture medium without cells.
(§6) After plating, the ULA culture plate was immediately centrifuged at room temperature at 1000 rpm for 10 minutes. Note: After completion of the centrifugation, subsequent operations must be processed carefully to avoid unnecessary shocks.
(§7) The culture plate was incubated in a 37° C., 5% CO2, 100% relative humidity incubator overnight.
(§8) 10× compound working solution (10× working solution in DMSO) was formulated, and then to the ULA culture plate was add 15 μL of 10× compound working solution, and to the vehicle control and blank control was added 15 μL of DMSO-cell culture medium mixture, respectively. […]
(§9) The luminescent signal was detected on a 2104 EnVision plate reader. […]

KRAS^G12D AsPC-1 = assay: Anti-cell proliferation effect in tumor cell line AsPC-1 (CellTiter-Glo 3D); type: cell-based; conditions: Homo sapiens, ASPC1, AsPC-1, 120 hours
Description: as §1, §2, §3, §4, §5, §6, §7, §8, §9

KRAS^G12D = KRAS^G12D (Homo sapiens (Human), UniProt P01116, G12D); assay: Assay of activity of inhibiting KRAS^G12D (TR-FRET, SOS/GTP nucleotide exchange); type: biochemical
Chain of KRAS^G12D (P01116-2 other isoform, or with tags, fused parts or gaps G12D): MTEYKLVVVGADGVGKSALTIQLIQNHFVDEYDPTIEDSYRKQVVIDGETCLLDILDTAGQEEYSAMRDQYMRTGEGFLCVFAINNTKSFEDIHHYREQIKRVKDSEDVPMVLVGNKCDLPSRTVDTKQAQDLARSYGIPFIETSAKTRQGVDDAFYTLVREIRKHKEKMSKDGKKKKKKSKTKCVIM
Description: 20 mL of 1000 mM HEPES, 20 mL of 500 mM EDTA, 10 mL of 5 M sodium chloride, 0.1 mL of 100% Tween 20, and 949.9 mL of water were weighed and formulated to 1 L of solution. The solution was sterilized by filtration and stored at 4° C.
20 mL of 1000 mM HEPES, 10 mL of 1000 mM magnesium chloride, 30 mL of 5 M sodium chloride, 0.05 mL of 100% Tween 20, and 939.95 mL of water were weighed and formulated to 1 L of solution. The solution was sterilized by filtration and stored at 4° C.
9.5 μL of 95 μM KRAS^G12D protein and 440.5 μL of KRAS nucleotide exchange buffer were weighed and mixed. The mixture was incubated at room temperature for 1 hour, and then formulated to […] of solution together with 8.4 μL of 17.9 μM Tb-SA, 1.8 μL of 5 mM Bodipy GDP and 9539.8 μL of KRAS assay buffer. After mixing, the solution was left to stand at room temperature for 6 hours, and stored at −80° C. • b. Assay reagents:
73.3 μL of KRAS/Bodipy GDP/Tb-SA mixture and 2126.7 μL of KRAS assay buffer were weighed and formulated to 2200 μL of solution.
1.59 μL of 166 μM SOS protein, 198 μL of 100 mM GTP and 2000.41 μL of KRAS assay buffer were weighed and formulated to 2200 μL of solution.
• 1) The concentration of a stock solution of the control compound was 1 mM, and the concentration of a stock solution of compounds to be assayed was 10 mM. […]

[2] = male, CD-1, plasma, intravenous (IV), about 2 mg/kg
[3] = male, CD-1, plasma, oral (PO), about 30 mg/kg

Row | Structure (SMILES) | IC50 (p-ERK in GP2D cells) | other results
1 | Nc1ccc(C(F)(F)F)c([C@H]2Cc3nc(OC[C@@]45CCCN4C[C@H](F)C5)nc(N4CC5CCC(C4)N5)c3CO2)c1F (single isomer, unassigned) [Compound 20B] | 1.3 nM | AUC(0-t) [1, 2]: 0.371 µM·h; C0 [1, 2]: 449 nM; Vd [1, 2]: 97.2 L/kg; clearance [1, 2]: 138 mL/min/kg; half-life [1, 2]: 11.2 h; AUC(0-inf) [1, 3]: 4.71 µM·h; Cmax [1, 3]: 2100 nM; half-life [1, 3]: 14.4 h; F ([1]; oral (PO), about 30 mg/kg, oral bioavailability): 85%
2 | Cc1cc(N)c(F)c(C2Cc3nc(OC[C@@]45CCCN4C[C@H](F)C5)nc(N4CC5CC(C4)N5)c3CO2)c1C(F)(F)F (stereo partly shown) [Compound 2 hydrochloride] |  | IC50 (KRAS^G12D GP2D): 332 nM; IC50 (KRAS^G12D AsPC-1): 1860 nM
3 | Cc1cc(N)c(F)c(C2Cc3nc(OC[C@@]45CCCN4C[C@H](F)C5)nc(N4CC5C=CC(C4)N5)c3CO2)c1C(F)(F)F (stereo partly shown) [Compound 7 hydrochloride] | 1.1 nM | IC50 (KRAS^G12D): 0.1 nM
4 | Oc1cc(C2Cc3nc(OC[C@@]45CCCN4C[C@H](F)C5)nc(N4CC5CCC(C4)N5)c3CO2)c2ccccc2c1 (stereo partly shown) [Compound 8 hydrochloride] | 78 nM | IC50 (KRAS^G12D): 78.3 nM
5 | Cc1cc(N)c(F)c(C2Cc3nc(OC[C@@]45CCCN4C[C@H](F)C5)nc(N4CC5CCC(C4)N5)c3CO2)c1C(F)(F)C(F)(F)F (stereo partly shown) [Compound 12 formate] | 20.9 nM | 
6 | Cc1cc(N)c(F)c(C2Cc3nc(OC[C@@]45CCCN4C[C@H](F)C5)nc(N4CC5CCC(C4)N5)c3CO2)c1Cl (stereo partly shown) [Compound 14 hydrochloride] | 5.2 nM | 
7 | Cc1cc(N)c(F)c(C2Cc3nc(OC[C@@]45CCCN4C[C@H](F)C5)nc(N4CC5CCC(C4)N5)c3CO2)c1Br (stereo partly shown) [Compound 15 hydrochloride] | 8.4 nM | 
8 | Cc1cc(N)c(F)c(C2Cc3nc(OC[C@@]45CCCN4C[C@H](F)C5)nc(N4CC5CCC(C4)N5)c3CO2)c1I (stereo partly shown) [Compound 16 hydrochloride] | 2.9 nM | 
9 | C#Cc1c(C)cc(N)c(F)c1C1Cc2nc(OC[C@@]34CCCN3C[C@H](F)C4)nc(N3CC4CCC(C3)N4)c2CO1 (stereo partly shown) [Compound 17] | 27.1 nM | 
10 | Cc1cc(N)c(F)c(C2Cc3nc(OC[C@@]45CCCN4C[C@H](F)C5)nc(N4CC5CCC(C4)N5)c3CO2)c1C#N (stereo partly shown) [Compound 18] | 66.4 nM | 
11 | C=Cc1c(C)cc(N)c(F)c1C1Cc2nc(OC[C@@]34CCCN3C[C@H](F)C4)nc(N3CC4CCC(C3)N4)c2CO1 (stereo partly shown) [Compound 19 hydrochloride] | 17.5 nM | 
12 | Nc1cc(Cl)c(Br)c(C2Cc3nc(OC[C@@]45CCCN4C[C@H](F)C5)nc(N4CC5CCC(C4)N5)c3CO2)c1F (stereo partly shown) [Compound 21 hydrochloride] | 2.6 nM | 
13 | Nc1cc(F)c(C(F)(F)F)c(C2Cc3nc(OC[C@@]45CCCN4C[C@H](F)C5)nc(N4CC5CCC(C4)N5)c3CO2)c1F (stereo partly shown) [Compound 22 hydrochloride] | 2.7 nM | 
14 | Cc1cc(N)nc(C2Cc3nc(OC[C@@]45CCCN4C[C@H](F)C5)nc(N4CC5CCC(C4)N5)c3CO2)c1C(F)(F)F (stereo partly shown) [Compound 23 formate] | 23.4 nM | 
15 | Cc1cc(N)c(F)c(C2Cc3nc(OC[C@@]45CCCN4C[C@H](F)C5)nc(N4CC5CCC(C4)N5)c3CO2)c1C (stereo partly shown) [Compound 25 hydrochloride] | 96.4 nM | 
16 | Cc1cc(N)c(F)c(C2Cc3nc(OC[C@@]45CCCN4C[C@H](F)C5)nc(N4CC5CCC(C4)N5)c3CO2)c1C1CC1 (stereo partly shown) [Compound 27 hydrochloride] | 118 nM | 
